According to US20260327214A1, “1,3,4-OXADIAZOLE DERIVATIVE COMPOUNDS AS HISTONE DEACETYLASE 6 INHIBITOR, AND USES THEREOF” (CHONG KUN DANG PHARMACEUTICAL CORP., priority 2022, published 2026):

How the values were obtained:
[1] = biological target: T1, human recombinant HDAC6 (Homo sapiens, UniProt Q9UBN7); experiment: HDAC6 enzyme activity inhibition test (HDAC Fluorometric Drug Discovery Kit); type: biochemical; conditions: for HDAC6 selectivity (fold): HDAC6 over HDAC1; for IC50: human recombinant HDAC6, same protocol as HDAC1
T1 construct: purchased Calbiochem 382180
T1 sequence (Q9UBN7 1-1215): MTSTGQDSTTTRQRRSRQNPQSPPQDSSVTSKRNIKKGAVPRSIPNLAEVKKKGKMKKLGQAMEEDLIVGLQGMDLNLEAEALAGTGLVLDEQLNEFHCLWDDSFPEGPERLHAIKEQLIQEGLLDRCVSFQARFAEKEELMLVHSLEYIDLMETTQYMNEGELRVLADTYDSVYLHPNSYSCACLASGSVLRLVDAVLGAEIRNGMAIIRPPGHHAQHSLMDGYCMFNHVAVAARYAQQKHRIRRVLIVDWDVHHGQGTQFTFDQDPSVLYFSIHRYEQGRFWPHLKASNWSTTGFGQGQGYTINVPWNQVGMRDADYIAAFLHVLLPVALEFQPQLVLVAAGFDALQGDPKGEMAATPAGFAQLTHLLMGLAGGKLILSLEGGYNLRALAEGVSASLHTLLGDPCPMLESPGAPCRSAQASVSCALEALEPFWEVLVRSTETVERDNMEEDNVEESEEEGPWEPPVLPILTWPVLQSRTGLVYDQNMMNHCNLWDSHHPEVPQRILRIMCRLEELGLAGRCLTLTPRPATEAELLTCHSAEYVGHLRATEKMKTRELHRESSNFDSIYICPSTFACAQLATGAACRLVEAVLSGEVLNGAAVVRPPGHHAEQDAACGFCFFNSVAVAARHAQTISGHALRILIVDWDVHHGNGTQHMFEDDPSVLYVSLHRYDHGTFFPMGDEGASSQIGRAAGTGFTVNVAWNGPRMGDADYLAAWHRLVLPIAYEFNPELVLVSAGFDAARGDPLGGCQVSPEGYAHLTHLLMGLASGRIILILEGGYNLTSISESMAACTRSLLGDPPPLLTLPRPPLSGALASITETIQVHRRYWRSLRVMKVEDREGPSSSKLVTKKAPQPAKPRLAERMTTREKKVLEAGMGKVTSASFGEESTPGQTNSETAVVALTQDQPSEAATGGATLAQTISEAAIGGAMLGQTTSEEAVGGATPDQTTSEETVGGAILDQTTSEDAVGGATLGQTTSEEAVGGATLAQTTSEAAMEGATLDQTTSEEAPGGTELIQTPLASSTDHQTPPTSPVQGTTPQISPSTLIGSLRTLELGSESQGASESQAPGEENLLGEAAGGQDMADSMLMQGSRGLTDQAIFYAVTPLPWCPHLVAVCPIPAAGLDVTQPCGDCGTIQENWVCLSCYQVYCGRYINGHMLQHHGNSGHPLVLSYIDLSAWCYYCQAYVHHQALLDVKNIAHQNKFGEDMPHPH
Procedure, shortened: (§1)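 Recombinant human HDAC1 or HDAC6 (0.3 μg) reacted with 10 μM Fluor de Lys SIRT1 substrate and 5-fold diluted compound for 60 min at 30 °C. Developer II added 30 min; fluorescence read at Ex 360/Em 460 and IC50 calculated.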

[2] = biological target: T2, human recombinant HDAC1 (Homo sapiens, UniProt Q13547); experiment: HDAC1 enzyme activity inhibition test (HDAC Fluorometric Drug Discovery Kit); type: biochemical; conditions: 30° C., 60 minutes, 10 μM substrate
T2 construct: purchased Enzo Life Science BML-SE456
T2 sequence (Q13547 whole entry): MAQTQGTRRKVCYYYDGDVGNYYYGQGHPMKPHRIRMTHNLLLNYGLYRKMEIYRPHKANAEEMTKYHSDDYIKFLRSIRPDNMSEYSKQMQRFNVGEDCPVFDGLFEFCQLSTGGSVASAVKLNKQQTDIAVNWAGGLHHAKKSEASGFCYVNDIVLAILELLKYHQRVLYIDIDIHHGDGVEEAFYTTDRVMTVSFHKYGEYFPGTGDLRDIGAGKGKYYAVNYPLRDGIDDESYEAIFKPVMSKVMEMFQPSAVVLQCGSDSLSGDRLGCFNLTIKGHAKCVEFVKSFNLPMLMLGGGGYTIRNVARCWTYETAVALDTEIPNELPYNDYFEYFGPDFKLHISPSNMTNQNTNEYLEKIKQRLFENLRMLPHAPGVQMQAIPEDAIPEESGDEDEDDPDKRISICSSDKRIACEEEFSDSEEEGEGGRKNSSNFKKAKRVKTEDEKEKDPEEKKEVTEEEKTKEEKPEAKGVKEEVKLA
Procedure, shortened: as §1

Row | Compound | HDAC6 selectivity (fold) [1] | IC50 [1] | IC50 [2]
1 | O=c1oc(-c2ccccc2)cn1Cc1ccc(-c2nnc(C(F)F)o2)cn1 [Compound 142, 3-((5-(5-(difluoromethyl)-1,3,4-oxadiazol-2-yl)pyridin-2-yl)methyl)-5-phenyloxazol-2(3H)-one] | 484 fold | 103 nM | > 50000 nM
2 | O=c1oc(-c2cccc(F)c2)cn1Cc1ccc(-c2nnc(C(F)F)o2)cn1 [Compound 143, 3-((5-(5-(difluoromethyl)-1,3,4-oxadiazol-2-yl)pyridin-2-yl)methyl)-5-(3-fluorophenyl)oxazol-2(3H)-one] | 374 fold | 134 nM | > 50000 nM
3 | Cn1c(-c2ccccc2)cn(Cc2ccc(-c3nnc(C(F)F)o3)cn2)c1=O [Compound 144, 1-((5-(5-(difluoromethyl)-1,3,4-oxadiazol-2-yl)pyridin-2-yl)methyl)-3-methyl-4-phenyl-1,3-dihydro-2H-imidazol-2-one] | 185 fold | 271 nM | > 50000 nM

Stronger by IC50 [1], values ahead:

Row | HDAC6 selectivity (fold) [1] | IC50 [1] | IC50 [2] | Compound
4 | 1114 fold | 44.9 nM | > 50000 nM | CCN1CCc2cc(-c3nn(Cc4ccc(-c5nnc(C(F)F)o5)cn4)c(=S)o3)sc2C1 [Compound 140, 3-[[5-[5-(difluoromethyl)-1,3,4-oxadiazol-2-yl]-2-pyridyl]methyl]-5-(6-ethyl-5,7-dihydro-4H-thieno[2,3-c]pyridin-2-yl)-1,3,4-oxadiazol-2-thione]
5 | 893 fold | 56 nM | > 50000 nM | CC(C)N1CCc2cc(-c3nn(Cc4ccc(-c5nnc(C(F)F)o5)cn4)c(=S)o3)sc2C1 [Compound 141, 3-[[5-[5-(difluoromethyl)-1,3,4-oxadiazol-2-yl]-2-pyridyl]methyl]-5-(6-isopropyl-5,7-dihydro-4H-thieno[2,3-c]pyridin-2-yl)-1,3,4-oxadiazol-2-thione]
